Reference: PMC9299220, “Inhibition of JMJD6 by 2‐Oxoglutarate Mimics” (Chemmedchem, 2021)
“Also recorded” adds a separate entry of the source. Read-outs that look alike come from different tables or passages of the source.

Columns and labels:
JMJD6Δ363‐403 = biological target: T1, JMJD6Δ363‐403 (Homo sapiens, UniProt Q6NYC1); assay: MALDI-TOF MS assay of JMJD6-catalysed lysine hydroxylation of LUC7L2 267-278 peptide; type: biochemical; details: for IC50: n=3, 10 μM JMJD6Δ363‐403, 100 μM LUC7L2 267‐278, 100 μM Fe(II), 400 μM L-sodium ascorbate, 20 μM 2OG, inhibitor 0–10 mM; for potency of JMJD6 inhibition (in words): MS assay
T1 construct: made in house
Text: Initially, we used the MS assay to screen a range of potential JMJD6 inhibitors, based on scaffolds identified as inhibitors of other 2OG oxygenases, grouped into: (i) TCA cycle and related acidic compounds; (ii) 2OG mimics / broad spectrum 2OG oxygenase inhibitors; (iii) PHD inhibitors in clinical use / investigation; (iv) tricarbonyl type compounds, which are known iron oxygenase inhibitors; (v) reported inhibitors of the JmjC KDMs.[23]
Figure S1. Initial inhibition assays. Bar charts showing extent of JMJD6 inhibition by 0.1, 1, and 10 mM compound: (A) TCA cycle intermediates/related compounds, (B) 2OG analogues, (C) PHD inhibitors, (D) Tricarbonyl type compounds, (E) JmjC KDM inhibitors.
Values represent the mean ± SD (n = 3). Conditions: 10 µM JMJD6Δ363-403 (prepared as […]
reported) and 100 µM LUC7L2267-278 ([…], with a C-terminal amide) at 37 °C in 50 mM HEPES pH 7.5 buffer with 100 µM (NH4)2Fe(SO4)2.6H2O (Sigma-Aldrich), […]
varied inhibitor concentrations (0-10 mM). Reactions were quenched and products analysed by MALDI-TOF MS following a reported procedure.[11]
(1 picture or pasted object on this page, not shown here)

[1] = biological target: T2, JMJD6Δ363‐403.Zn(II).2OG complex (Homo sapiens, UniProt Q6NYC1); assay: Ligand-observed CPMG-edited 1H NMR 2OG displacement assay from JMJD6Δ363‐403.Zn(II).2OG complex; type: binding; details: for Kd: 1H NMR, 60 µM EDTA-treated JMJD6, 200 µM Zn(II), 20 µM 2OG, 50 mM Tris-D11 pH 7.0, 10% D2O, mean ± SD (n=3), read-out: KD app (apparent binding constant) (converted); for extent of 2OG displacement from JMJD6Δ363‐403.Zn(II).2OG complex (in words): initial screen, fixed inhibitor concentration (400 µM ligand), Figure S6
T2 construct: made in house
Text: We investigated whether the inhibitors compete for binding to JMJD6^Δ363‐403, using ^1H NMR to investigate the extent to which they displace 2OG from the JMJD6^Δ363‐403.Zn(II).2OG complex, initially with a fixed inhibitor concentration (Figure S6).[21, 22]
Figure S6: 2OG displacement ligand-binding assays with JMJD6 using CPMG-edited 1H NMR. Bar charts show the extent of 2OG displacement for: (A) TCA cycle intermediates, (B) 2OG mimetics, (C) PHD inhibitors, (D) tricarbonyl type compounds, (E) KDM inhibitors. Conditions: 60 µM EDTA-treated JMJD6∆363-403, 200 µM Zn(II), 10 µM 2OG, and 400 µM of the ligand, all in 50 mM Tris-D11, pH 7.0 in 10% D2O. Values represent the mean (n = 3) ± standard deviation (SD). Eq DMSO: DMSO control without inhibitor.
Figure S7: KDapp determination for TCA cycle intermediates / related compounds binding to JMJD6. Plots used for the determination of KDapp values of (A) fumarate and (B) […]
succinate. […] Conditions: 60 µM
EDTA-treated JMJD6, 200 µM Zn(II), 20 µM 2OG, 0-400 µM ligand, all in 50 mM Tris-D11 pH 7.0 in 10% D2O. Values represent the mean ± SD (n = 3). Compound structures are […]
Figure S8: KDapp determination for pyridine derivative binding to JMJD6. Plots used for determination of KDapp values (A) 2,4-PDCA and (B) 2,4-BPDCA.
Conditions: 60 µM EDTA-treated
D2O. Values represent the mean ± SD (n = 3).
Figure S9: KDapp determination for PHD inhibitor binding to JMJD6. Plots used for the determination of KDapp value (A) AKB-6899 and (B) Vadadustat.
Conditions: 60 µM EDTA-treated JMJD6,
Values represent the mean ± SD (n = 3).
Conditions for NMR assays
NMR was used to measure 2OG displacement from JMJD6 caused by inhibitors according to the method of Leung et al. The Carr-Purcell-Meiboom-Gill (CPMG) pulse sequence coupled with periodic refocusing of J evolution by coherence transfer (PROJECT) method was applied for spectral editing was used to edit out protein signals. In the initial screen […]
2OG and 400 µM inhibitor; the 1H NMR-spectra of 2OG were then analysed. To determine the apparent binding constant (KDapp), 20 µM of 2OG was titrated against increasing concentrations of JMJD6Δ363-403 in the presence of Zn(II) [JMJD6∆363-403.Zn(II)]. Thus, JMJD6∆363-403.Zn(II) was added until the methylene signals of 2OG were no longer observed, indicating complete 2OG binding to JMJD6. The extent of 2OG (%) bound to JMJD6Δ363-403 was calculated and the values were plotted against the concentration of JMJD6Δ363-403 using OriginTM. The KDapp of 2OG was calculated as reported.[11] To determine the KDapp for the inhibitor, the recovery of 2OG-signals was monitored in the presence of varied concentrations of inhibitor (0-800 µM).
% 2OG Displacement = x 100 […]
where, I2OG is the integral of the 2OG 1H signal in the presence of both inhibitor and JMJD6∆363-403.Zn(II)], I2OG(0) is the integral of 2OG in the presence of JMJD6∆363-403.Zn(II)] without inhibitor, I2OG(blank) is the integral of 2OG in the absence of both JMJD6∆363-403.Zn(II)] and inhibitor, ∆obs is the change in the integral of 2OG resulting from titration, ∆max represents the maximum change of the monitored NMR parameter (2OG integral), [L]0 is the titrated ligand concentration, and [P]0 is the JMJD6∆363-403concentration. 5-10% error was typically allowed in the curve fitting process.

SMILES	IC50 (JMJD6Δ363‐403; mean±SD, read-out: IC50) [µM]	IC50 (JMJD6Δ363‐403; IC50, mean±SD) [µM]	other results
O=C(O)CC(=O)C(=O)O [Oxaloacetate]	204 ± 2	–	–
Cn1c(O)c(C(=O)CCc2ccccc2)c(=O)n(C)c1=O [compound 7]	–	43 ± 1.1	–
O=C(O)CC(O)(CC(=O)O)C(=O)O [Citrate]	987 ± 1.3	–	–
O=C(O)CCC(=O)O [Succinate]	261 ± 2.3	–	Kd [1]: 159 µM; extent of 2OG displacement from JMJD6Δ363‐403.Zn(II).2OG complex (in words) [1]: most efficiently displaced 2OG
O=C(CCC1CCCC1)c1c(O)n(C2CCCCC2)c(=O)n(C2CCCCC2)c1=O [compound 10]	–	≥ 1000	–
CN(C)NC(=O)CCC(=O)O [Daminozide, reference compound]	–	94 ± 1.5	–
Cn1c(O)c(C(=O)CCc2cccs2)c(=O)n(C)c1=O [compound 8]	–	27 ± 1.4	–
O=c1c(-n2ccnn2)c[nH]n1-c1cc(N2CCOCC2)ncn1 [Molidustat, reference compound]	74 ± 1.6	–	–
O=C(O)c1ccnc2c(O)cccc12 [compound 2]	5 ± 1.3	–	–
CCOC(=O)CNC(=O)c1c(O)n(C2CCCCC2)c(=O)n(C2CCCCC2)c1=O [compound 4]	–	175 ± 1.5	–
O=C(O)CC(O)C(=O)O (centres unmarked) [Malate]	5103 ± 2	–	–
Cn1c(O)c(C(=O)CCC2CCCC2)c(=O)n(C)c1=O [compound 11]	–	67 ± 1.2	–
O=C(O)c1ccnc(-c2cc(C(=O)O)ccn2)c1 [2,4 BPDCA, 2,2’‐bipyridine‐4,4’‐dicarboxylate, reference compound]	6 ± 1.6	–	Kd [1]: 7 µM; extent of 2OG displacement from JMJD6Δ363‐403.Zn(II).2OG complex (in words) [1]: most efficiently displaced 2OG
Cn1c(O)c(C(=O)CCC2CC2)c(=O)n(C)c1=O [compound 14]	–	163 ± 1.3	–
O=C(O)CNC(=O)CNC(=O)C(=O)O [compound 1]	189 ± 1.5	–	–
O=C(O)CNC(=O)c1c(O)n(C2CCCCC2)c(=O)n(C2CCCCC2)c1=O [GSK1278863, reference compound]	–	10 ± 1.2	–
O=C(O)CNC(=O)c1ncc(-c2cccc(Cl)c2)cc1O [Vadadustat]	7 ± 1.6	–	Kd [1]: 14 µM; extent of 2OG displacement from JMJD6Δ363‐403.Zn(II).2OG complex (in words) [1]: most efficiently displaced 2OG
O=C(O)c1ccnc(C(=O)O)c1 [2,4 PDCA, pyridine‐2,4‐dicarboxylate, reference compound]	13 ± 1.3	–	Kd [1]: 6 µM; extent of 2OG displacement from JMJD6Δ363‐403.Zn(II).2OG complex (in words) [1]: most efficiently displaced 2OG

SMILES	IC50 (JMJD6Δ363‐403; mean±SD, read-out: IC50) [µM]	IC50 (JMJD6Δ363‐403; IC50, mean±SD) [µM]	other results
Cn1c(O)c(C(=O)CCc2ccsc2)c(=O)n(C)c1=O [compound 15]	–	≥ 1000	–
CCn1c(O)c(C(=O)CCC2CCCC2)c(=O)n(CC)c1=O [compound 9]	–	≥ 1000	–
O=C(O)CNC(=O)c1c(O)[nH]c(=O)[nH]c1=O [compound 5]	–	19 ± 1.3	–
COc1cccc(CCC(=O)c2c(O)n(C)c(=O)n(C)c2=O)c1 [compound 13]	–	135 ± 1.3	–
O=C(O)CC[C@@H](O)C(=O)O [D‐2HG, 2‐hydroxyglutarate]	622 ± 1.4	–	–
O=C(O)c1ccc(O)c2ncccc12 [IOX1, 5‐carboxy‐8‐hydroxyquinoline, reference compound]	10 ± 1.5	–	–
O=C(O)/C=C/C(=O)O [Fumarate]	165 ± 1.4	–	potency of JMJD6 inhibition (in words) (JMJD6Δ363‐403): most potent of these compounds; Kd [1]: 109 µM; extent of 2OG displacement from JMJD6Δ363‐403.Zn(II).2OG complex (in words) [1]: most efficiently displaced 2OG
COc1ccccc1CCC(=O)c1c(O)n(C)c(=O)n(C)c1=O [compound 12]	–	58 ± 1.4	–
CC(=O)C(=O)O [Pyruvate]	2377 ± 1.7	–	–
O=C(O)CNC(=O)c1ncc(-c2cccc(F)c2)cc1O [AKB‐6899]	9 ± 1.5	–	Kd [1]: 3 µM; extent of 2OG displacement from JMJD6Δ363‐403.Zn(II).2OG complex (in words) [1]: most efficiently displaced 2OG
O=C(O)CC[C@H](O)C(=O)O [L‐2HG, 2‐hydroxyglutarate]	871 ± 1.5	–	–
Cn1c(O)c(C(=O)NCC(=O)O)c(=O)n(C)c1=O [compound 6]	–	23 ± 1.2	–
CC(Cc1ccsc1)C(=O)c1c(O)n(C)c(=O)n(C)c1=O (centres unmarked) [compound 16]	–	214 ± 1.4	–
Cc1nc(C(=O)NCC(=O)O)c(O)c2ccc(Oc3ccccc3)cc12 [FG‐4592, reference compound]	23 ± 1.5	–	–
O=C(O)CNC(=O)C(=O)O [NOG, N‐oxalylglycine, reference compound]	296 ± 1.9	–	potency of JMJD6 inhibition (in words) (JMJD6Δ363‐403): poor inhibitor; also recorded: not a potent JMJD6 inhibitor; extent of 2OG displacement from JMJD6Δ363‐403.Zn(II).2OG complex (in words) [1]: only weakly displaced 2OG
O=C(O)CCC(=O)NO [compound 3]	25 ± 2	–	–
CC(Cc1ccsc1)C(=O)c1c(O)n(C)c(=O)n(C)c1=O (centres unmarked) [compound 17]	–	22 ± 1.4	–
